Assay results from US20260041653A1, “AN HDAC INHIBITOR FOR TREATING CANCER WITH A MODIFIED STK11 ACTIVITY OR EXPRESSION” (Tango Therapeutics, Inc., priority 2022, published 2026).
“And” between values parts separate entries of the source, which are not always exact repeats. Equal values may be shown once. “Also recorded” adds a separate entry of the source.

Assays:
[1] = PK/PD study, plasma concentrations in MC38 tumor-bearing mice; format: in vivo, C57BL/6 mice; conditions: for free unbound exposure in plasma: based on 10.05% free fraction
Experimental: In a separate PK/PD study, MC38 tumor-bearing female C57BL/6 mice (12/group) were assigned to treatment groups with similar mean tumor volumes of approximately 430 mm^3 and treated with vehicle (5% N,N-dimethylacetamide [DMA]+30% polyethylene glycol [PEG] 400+65% of 30% 2-hydroxypropyl-beta-cyclodextrin [HP-β-CD] in water) or Compound I at 30, 100, and 300 mg/kg once daily (QD) for 2 days. […] Peripheral blood mononuclear cells (PBMC) and tumor samples were harvested at 2, 8, and 24 hours after last dose. The PBMC samples were processed for determination of mean florescent level of acetyl-histone H2B by flow cytometry. Tumor samples were processed for determination of protein levels of acetyl-histone H3 by Western blot.

MC38_sgStk11 tumor = assay: Re-challenge of survived animals of Example 1 with MC38_sgStk11 cells; format: in vivo, Mus musculus; conditions: off-treatment
Experimental: Summary: A re-challenge study of Example 1 was performed to evaluate whether the survived animals from Example 1 had acquired T memory against the same tumor.
Experimental Design & Materials: The survived animals of the efficacy part were re-challenged with MC38_sgStk11 cells respectively in the opposite side of primary tumors.
The MC38_sgStk11 tumor cells were maintained in vitro as a monolayer culture in DMEM+2 mM glutamine supplemented with about 10% heat inactivated fetal bovine serum, 100 U/ml penicillin and 100 μg/ml streptomycin at about 37° C. in an atmosphere of about 5% CO2 in air. The tumor cells were routinely sub-cultured twice weekly by trypsin-EDTA treatment. The cells growing in an exponential growth phase were harvested and counted for tumor inoculation.
Mice were inoculated subcutaneously at the left lower flank with MC38_sgStk11 tumor cells (0.5×106) in 0.1 ml of PBS for tumor development. The animal numbers and the cell numbers for each group are shown in the experimental design (Table 2-1). The survived animals from the Example 1 were under post-treatment monitoring for 21 days before re-challenge.
All the procedures related to animal handling, care and the treatment in the study were performed according to the guidelines approved by the Institutional Animal Care and Use Committee (IACUC) of vendor following the guidance of the Association for Assessment and Accreditation of Laboratory Animal Care (AAALAC). At the time of routine monitoring, the animals were daily checked for any effects of tumor growth and treatments on normal behavior such as mobility, food and water consumption, body weight gain/loss (body weights were measured twice per week), eye/hair matting and any other abnormal effect as stated in the protocol. Death and observed clinical signs were recorded on the basis of the numbers of animals within each subset.
Tumor size was measured three times per week in […] using a caliper, and the volume was expressed in mm3 using the formula: V=0.5 a×b2 where a and b are the long and short diameters of the tumor, respectively.

CYP2C9 = CYP2C9 (Homo sapiens, UniProt P11712); assay: Metabolism by recombinant human CYP2C9; format: in vitro ADME; conditions: read-out: terminal half life (T1/2), rh CYP2C9
Experimental: (§1) Drug metabolizing enzymes involved in the biotransformation of Compound I were investigated using human liver microsomes (HLM) and recombinant enzymes. Compound I was stable in HLMs (>93% remaining after 240 minutes of incubation with HLM protein concentration at 0.6 mg/ml). CYP selective inhibitor experiments were not performed due to lack of appreciable Compound I turnover.

CYP2C8 = CYP2C8 (Homo sapiens, UniProt P10632); assay: Metabolism by recombinant human CYP2C8; format: in vitro ADME; conditions: read-out: terminal half life (T1/2), rh CYP2C8
Experimental: as §1

CoREST complex = assay: Fluorescence-based deacetylase assay of cell-derived HDAC complex, CoREST; format: biochemical
Excerpt: The HDAC inhibition was profiled in a fluorescence-based deacetylase assay.

[2] = Pharmacokinetics in beagle dogs; format: in vivo
Experimental: The PK of Compound I in beagle dogs was determined in plasma following single IV bolus and PO administration to non-naïve male and female beagle dogs. The vehicle used for IV was 20% wt/vol 2-hydroxypropyl β cyclodextrin (HPβCD), 1% vol/vol DMSO in saline, and PO was in 5% DMA, 30% PEG400 and 65% (30% HPβCD in water) (solution) or 0.5% MC (suspension). Plasma samples were collected from 3 animals/group at 0.083, 0.25, 0.5, 1, 3, 6, 9, 12, 24 and 48 hours after dosing.

Pharmacokinetics in rats = format: in vivo, Sprague Dawley rats; conditions: rat, plasma
Experimental: The pharmacokinetics (PK) of Compound I in rats was determined following single IV bolus of 1 mg/kg in 20% wt/vol HPβCD, 1% vol/vol DMSO in saline or single PO dose of 3 mg/kg in 0.5% methylcellulose (MC) in water to male Sprague Dawley rats (fed for IV, fasted for PO). Plasma samples were collected from 3 animals/group at 0.05, 0.25, 0.5, 1, 2, 3, 4 8, and 24 hours after dosing.

[3] = 30, 100, 300 mg/kg QD for 2 days

Sequence of CYP2C9 (P11712 whole entry): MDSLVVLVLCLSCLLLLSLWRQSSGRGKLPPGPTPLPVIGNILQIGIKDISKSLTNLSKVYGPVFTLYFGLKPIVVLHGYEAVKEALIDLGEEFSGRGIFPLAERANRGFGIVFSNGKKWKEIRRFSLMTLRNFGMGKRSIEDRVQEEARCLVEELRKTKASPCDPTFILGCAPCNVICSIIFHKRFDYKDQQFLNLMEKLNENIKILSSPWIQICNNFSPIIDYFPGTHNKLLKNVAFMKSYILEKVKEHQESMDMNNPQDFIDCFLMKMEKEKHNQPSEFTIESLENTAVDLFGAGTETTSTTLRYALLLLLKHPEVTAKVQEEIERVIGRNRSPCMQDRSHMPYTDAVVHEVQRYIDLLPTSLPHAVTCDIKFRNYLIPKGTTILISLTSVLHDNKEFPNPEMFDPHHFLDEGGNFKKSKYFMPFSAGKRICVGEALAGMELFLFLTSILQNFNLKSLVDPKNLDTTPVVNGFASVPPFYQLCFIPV
Sequence of CYP2C8 (P10632 whole entry): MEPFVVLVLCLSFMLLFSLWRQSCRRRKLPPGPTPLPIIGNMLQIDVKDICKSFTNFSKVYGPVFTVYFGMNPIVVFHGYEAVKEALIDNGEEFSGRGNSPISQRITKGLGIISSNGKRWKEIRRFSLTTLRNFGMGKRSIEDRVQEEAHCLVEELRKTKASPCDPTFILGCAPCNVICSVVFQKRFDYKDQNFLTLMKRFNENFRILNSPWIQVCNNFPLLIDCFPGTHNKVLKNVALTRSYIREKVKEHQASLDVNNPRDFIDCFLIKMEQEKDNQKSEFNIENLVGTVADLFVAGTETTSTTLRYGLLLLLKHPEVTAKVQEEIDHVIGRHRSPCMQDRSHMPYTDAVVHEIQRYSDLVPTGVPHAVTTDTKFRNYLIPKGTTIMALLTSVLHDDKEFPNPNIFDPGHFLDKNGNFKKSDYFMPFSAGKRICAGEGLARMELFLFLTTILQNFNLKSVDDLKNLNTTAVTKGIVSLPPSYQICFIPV

SMILES: C[S@@](=N)(=O)c1ccc(C(=O)Nc2cc(-c3ccc(F)cc3)ccc2N)cc1 [Compound I, (R)—N-(4-amino-4′-fluoro-[1,1′-biphenyl]-3-yl)-4-(S-methylsulfonimidoyl)benzamide]
- free unbound exposure in plasma ([1]; 30 mg/kg QD for 2 days): 5470 ng·h/mL
- free unbound exposure in plasma ([1]; 100 mg/kg QD for 2 days): 17238 ng·h/mL
- free unbound exposure in plasma ([1]; 300 mg/kg QD for 2 days): 69665 ng·h/mL
- plasma concentrations versus dose [1, 3]: dose proportional
- time of maximal plasma concentrations after the last dose [1, 3]: 1 h
- Tumor Volume after re-challenge (MC38_sgStk11 tumor; Re-challenge Gr 2: survivor of Ex. 1 Gr. 5 (Anti-IgG2a + Compound I 75 mg/kg), day 0 after cell inoculation): 0 mm^3
- Tumor Volume after re-challenge (MC38_sgStk11 tumor; Re-challenge Gr 2: survivor of Ex. 1 Gr. 5 (Anti-IgG2a + Compound I 75 mg/kg), day 3 after cell inoculation): 17 mm^3
- Tumor Volume after re-challenge (MC38_sgStk11 tumor; Re-challenge Gr 2: survivor of Ex. 1 Gr. 5 (Anti-IgG2a + Compound I 75 mg/kg), day 5 after cell inoculation): 25 mm^3
- Tumor Volume after re-challenge (MC38_sgStk11 tumor; Re-challenge Gr 2: survivor of Ex. 1 Gr. 5 (Anti-IgG2a + Compound I 75 mg/kg), day 8 after cell inoculation): 6 mm^3
- Tumor Volume after re-challenge (MC38_sgStk11 tumor; Re-challenge Gr 2: survivor of Ex. 1 Gr. 5 (Anti-IgG2a + Compound I 75 mg/kg), day 10 after cell inoculation): 0 mm^3
- Tumor Volume after re-challenge (MC38_sgStk11 tumor; Re-challenge Gr 2: survivor of Ex. 1 Gr. 5 (Anti-IgG2a + Compound I 75 mg/kg), day 12 after cell inoculation): 0 mm^3
- Tumor Volume after re-challenge (MC38_sgStk11 tumor; Re-challenge Gr 2: survivor of Ex. 1 Gr. 5 (Anti-IgG2a + Compound I 75 mg/kg), day 15 after cell inoculation): 0 mm^3
- Tumor Volume after re-challenge (MC38_sgStk11 tumor; Re-challenge Gr 2: survivor of Ex. 1 Gr. 5 (Anti-IgG2a + Compound I 75 mg/kg), day 17 after cell inoculation): 0 mm^3
- Tumor Volume after re-challenge (MC38_sgStk11 tumor; Re-challenge Gr 2: survivor of Ex. 1 Gr. 5 (Anti-IgG2a + Compound I 75 mg/kg), day 19 after cell inoculation): 0 mm^3
- Tumor Volume after re-challenge (MC38_sgStk11 tumor; Re-challenge Gr 7: survivors of Ex. 1 Gr. 12 (head prints Anti-IgG2a + Compound I 150 mg/kg D0-D4, 100 mg/kg D5-D48), day 0 after cell inoculation): 0 ± 0 mm^3
- Tumor Volume after re-challenge (MC38_sgStk11 tumor; Re-challenge Gr 7: survivors of Ex. 1 Gr. 12 (head prints Anti-IgG2a + Compound I 150 mg/kg D0-D4, 100 mg/kg D5-D48), day 3 after cell inoculation): 27 ± 2 mm^3
- Tumor Volume after re-challenge (MC38_sgStk11 tumor; Re-challenge Gr 7: survivors of Ex. 1 Gr. 12 (head prints Anti-IgG2a + Compound I 150 mg/kg D0-D4, 100 mg/kg D5-D48), day 5 after cell inoculation): 27 ± 1 mm^3
- Tumor Volume after re-challenge (MC38_sgStk11 tumor; Re-challenge Gr 7: survivors of Ex. 1 Gr. 12 (head prints Anti-IgG2a + Compound I 150 mg/kg D0-D4, 100 mg/kg D5-D48), day 8 after cell inoculation): 6 ± 0 mm^3
- Tumor Volume after re-challenge (MC38_sgStk11 tumor; Re-challenge Gr 7: survivors of Ex. 1 Gr. 12 (head prints Anti-IgG2a + Compound I 150 mg/kg D0-D4, 100 mg/kg D5-D48), day 10 after cell inoculation): 0 ± 0 mm^3
- Tumor Volume after re-challenge (MC38_sgStk11 tumor; Re-challenge Gr 7: survivors of Ex. 1 Gr. 12 (head prints Anti-IgG2a + Compound I 150 mg/kg D0-D4, 100 mg/kg D5-D48), day 12 after cell inoculation): 0 ± 0 mm^3
- Tumor Volume after re-challenge (MC38_sgStk11 tumor; Re-challenge Gr 7: survivors of Ex. 1 Gr. 12 (head prints Anti-IgG2a + Compound I 150 mg/kg D0-D4, 100 mg/kg D5-D48), day 15 after cell inoculation): 0 ± 0 mm^3
- Tumor Volume after re-challenge (MC38_sgStk11 tumor; Re-challenge Gr 7: survivors of Ex. 1 Gr. 12 (head prints Anti-IgG2a + Compound I 150 mg/kg D0-D4, 100 mg/kg D5-D48), day 17 after cell inoculation): 0 ± 0 mm^3
- Tumor Volume after re-challenge (MC38_sgStk11 tumor; Re-challenge Gr 7: survivors of Ex. 1 Gr. 12 (head prints Anti-IgG2a + Compound I 150 mg/kg D0-D4, 100 mg/kg D5-D48), day 19 after cell inoculation): 0 ± 0 mm^3
- half-life (CYP2C9): > 1 h
- half-life (CYP2C8): > 1 h
- selectivity for CoREST deacetylase compared to NCOR, NuRD, and Sin3 (CoREST complex): significant selectivity; also recorded: selective for the CoREST complex
- PO bioavailability (% F) ([2]; beagle dogs, solution at 3 mg/kg, fasted, 3 mg/kg): 67%
- half-life ([2]; both sexes, beagle, dog, plasma): 8.4 h
- clearance ([2]; both sexes, beagle, dog, plasma, intravenous, read-out: CL, p): 9.6 mL/min/kg
- bioavailability ([2]; both sexes, beagle, dog, plasma, po, 3 mg/kg, beagle dogs, solution at 3 mg/kg, fasted, read-out: PO bioavailability (% F)): 67.4%
- half-life (Pharmacokinetics in rats; male, Sprague Dawley): 4.8 h
- clearance (Pharmacokinetics in rats; male, Sprague Dawley, intravenous, 1 mg/kg, read-out: CL, p): 7.7 mL/min/kg
- bioavailability (Pharmacokinetics in rats; male Sprague Dawley rats, PO 3 mg/kg in 0.5% MC, fasted, IV 1 mg/kg, read-out: PO bioavailability (% F)): 95.4% and 95%
